Results as given in US6649654B1, “Methods for identifying and using IKK inhibitors” (The Regents of the University of California, priority 1999, dated 2003).
“Also recorded” adds a separate entry of the source.

Legend:
[1] = target: JNK (Homo sapiens, UniProt P45983); test: JNK activity in HeLa cells; assay type: cell-based; parameters: endogenous in cells; conditions: even in the absence of TNFα
Experimental: (§1) Cells used in the experiments described herein were cultured in either RPMI 1640 (Jurkat cells) or DMEM (HeLa and COS cells), supplemented with 10% FBS and antibiotics. Cells were stimulated with either 25 ng/ml TPA, 20 ng/ml recombinant TNFα, or 10 ng/ml interleukin 1β (Sigma). PGA1, 15dPGJ2, T×B2, LTB4, AA and other PGs (Cayman) dissolved in ethanol were used as well, as known in the art (See e.g., Rossi et al., 94:746-750 [1997]). Controls received equal amounts of ethanol. Transfections were performed using Lipofectamine Plus (GIBCO) for HeLa and COS cells and DEAE-dextran (Sigma) for Jurkat cells. Xpress-tagged NIK, Xpress-tagged MEKK1, HA-tagged IKKα, and HA-tagged IKKβ were also used (See e.g., Zandi et al., Science 281:1360-1363 [1998]; and Delhase et al., Science 284:309-313 [1999]). COX2 and cPLA2 expression vectors were obtained from Dr. L. Feng (See also, Hirose et al., J. Am. Soc. Nephrol., 9:408-416 [1998]). PGD synthase was cloned from HT29 colon carcinoma cell line cDNA by PCR and subcloned into a pCDNA3 vector. […]
(§2) Cell lysates were incubated with anti-IKKα (Pharmingen), anti-HA (12CA5; Pharmingen), anti-JNK1 (333.8; Pharmingen), or anti-p38 (New England Biolabs) for 2 hours. […] Endogenous IKK, HA-tagged IKKα, endogenous JNK1, and p38 activities were determined with GST-1κBα(1-54), GST-c-Jun(1-79), and GST-ATF2 as substrates.

[2] = target: IKK (Homo sapiens, UniProt O14920+O15111); test: TNFα-induced IKK activity in human peripheral blood monocytes; assay type: cell-based
[3] = tested on: carrageenin-induced pleurisy; conditions: rats, endogenous and exogenous 15dPGJ2; Gilroy et al.; cited from earlier work
[4] = tested on: IKK; test: MEKK1-induced IKK activity in COS cells; assay type: cell-based; conditions: data not shown
Experimental: as §1, §2

[5] = target: T1, IKKβ (Homo sapiens, UniProt O14920); test: HA-tagged IKKβ overexpressed in COS cells: kinase activity and expression; assay type: cell-based
T1 sequence (O14920 1-756): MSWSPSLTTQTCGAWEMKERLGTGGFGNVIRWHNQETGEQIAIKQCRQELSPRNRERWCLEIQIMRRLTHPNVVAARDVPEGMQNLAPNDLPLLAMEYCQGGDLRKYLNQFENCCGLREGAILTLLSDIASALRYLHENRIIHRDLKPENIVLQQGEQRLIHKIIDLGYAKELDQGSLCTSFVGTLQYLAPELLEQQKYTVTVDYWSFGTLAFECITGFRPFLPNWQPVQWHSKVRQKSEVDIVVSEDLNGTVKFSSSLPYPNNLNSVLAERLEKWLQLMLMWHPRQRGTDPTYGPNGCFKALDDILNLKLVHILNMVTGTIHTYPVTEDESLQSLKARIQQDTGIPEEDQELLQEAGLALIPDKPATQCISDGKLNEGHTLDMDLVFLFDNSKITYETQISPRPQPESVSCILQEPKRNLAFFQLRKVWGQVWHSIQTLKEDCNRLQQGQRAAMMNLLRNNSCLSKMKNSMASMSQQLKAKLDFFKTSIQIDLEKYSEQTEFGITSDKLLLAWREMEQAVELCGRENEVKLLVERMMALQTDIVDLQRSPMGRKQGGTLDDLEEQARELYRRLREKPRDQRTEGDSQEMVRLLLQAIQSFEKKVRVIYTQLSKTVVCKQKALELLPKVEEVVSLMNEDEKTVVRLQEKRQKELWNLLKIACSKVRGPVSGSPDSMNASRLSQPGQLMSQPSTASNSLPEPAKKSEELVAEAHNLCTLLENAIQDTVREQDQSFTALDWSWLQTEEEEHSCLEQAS
Experimental: as §1, §2

[6] = target: p38 (Homo sapiens, UniProt Q16539); test: p38 MAP kinase activation in TPA-stimulated Jurkat cells; assay type: cell-based; parameters: endogenous in cells; host or cells: Jurkat; conditions: 24 μM PGA1, TPA
Experimental: as §1
as §2, with “substrates. […]” for “substrates.”

Chain of IKK (Homo sapiens, UniProt O14920+O15111) (O15111 whole entry, one chain of several): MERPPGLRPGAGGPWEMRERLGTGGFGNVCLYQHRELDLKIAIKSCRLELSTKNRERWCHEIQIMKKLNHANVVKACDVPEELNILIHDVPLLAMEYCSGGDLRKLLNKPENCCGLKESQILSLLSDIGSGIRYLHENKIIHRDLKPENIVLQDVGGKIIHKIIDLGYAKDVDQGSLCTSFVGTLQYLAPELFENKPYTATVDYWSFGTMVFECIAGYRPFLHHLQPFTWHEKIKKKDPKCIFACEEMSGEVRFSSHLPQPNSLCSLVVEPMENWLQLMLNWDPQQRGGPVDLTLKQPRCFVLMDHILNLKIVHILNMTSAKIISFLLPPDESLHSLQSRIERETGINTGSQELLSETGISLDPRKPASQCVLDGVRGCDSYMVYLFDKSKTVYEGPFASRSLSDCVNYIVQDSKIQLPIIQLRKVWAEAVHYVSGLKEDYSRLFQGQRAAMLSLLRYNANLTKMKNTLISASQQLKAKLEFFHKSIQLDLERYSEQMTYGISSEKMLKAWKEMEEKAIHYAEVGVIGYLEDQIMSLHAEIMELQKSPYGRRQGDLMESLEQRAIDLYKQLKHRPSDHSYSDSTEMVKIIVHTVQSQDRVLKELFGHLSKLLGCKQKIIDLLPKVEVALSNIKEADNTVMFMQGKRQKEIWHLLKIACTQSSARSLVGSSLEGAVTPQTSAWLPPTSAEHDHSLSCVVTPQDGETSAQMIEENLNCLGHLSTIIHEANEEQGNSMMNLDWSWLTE
Chain of IKK (Homo sapiens, UniProt O14920+O15111) (Q9Y6K9 whole entry partner, one chain of several): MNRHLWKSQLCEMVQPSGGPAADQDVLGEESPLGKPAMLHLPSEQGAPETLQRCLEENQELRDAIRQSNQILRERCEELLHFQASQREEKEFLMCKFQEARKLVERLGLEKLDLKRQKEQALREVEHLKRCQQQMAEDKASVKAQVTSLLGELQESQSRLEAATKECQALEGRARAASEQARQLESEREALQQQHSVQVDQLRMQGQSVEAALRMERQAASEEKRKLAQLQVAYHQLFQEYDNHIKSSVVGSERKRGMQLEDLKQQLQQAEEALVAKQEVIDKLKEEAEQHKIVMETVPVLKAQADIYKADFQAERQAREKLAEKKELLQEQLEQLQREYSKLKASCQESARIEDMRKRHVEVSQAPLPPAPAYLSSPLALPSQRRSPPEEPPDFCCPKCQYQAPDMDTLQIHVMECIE
Chain of JNK (P45983 whole entry): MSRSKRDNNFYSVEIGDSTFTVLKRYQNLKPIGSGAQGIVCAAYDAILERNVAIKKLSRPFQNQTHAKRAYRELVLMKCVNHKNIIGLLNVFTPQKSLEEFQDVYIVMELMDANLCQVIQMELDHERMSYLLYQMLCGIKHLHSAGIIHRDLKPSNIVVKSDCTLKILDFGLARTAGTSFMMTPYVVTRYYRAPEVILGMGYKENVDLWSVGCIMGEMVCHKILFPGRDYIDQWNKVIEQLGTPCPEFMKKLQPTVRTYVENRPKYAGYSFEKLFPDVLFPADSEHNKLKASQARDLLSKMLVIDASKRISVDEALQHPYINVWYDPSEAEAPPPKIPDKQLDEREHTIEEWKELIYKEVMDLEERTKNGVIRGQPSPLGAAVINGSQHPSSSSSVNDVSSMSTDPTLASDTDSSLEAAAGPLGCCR
Chain of p38 (Q16539 whole entry): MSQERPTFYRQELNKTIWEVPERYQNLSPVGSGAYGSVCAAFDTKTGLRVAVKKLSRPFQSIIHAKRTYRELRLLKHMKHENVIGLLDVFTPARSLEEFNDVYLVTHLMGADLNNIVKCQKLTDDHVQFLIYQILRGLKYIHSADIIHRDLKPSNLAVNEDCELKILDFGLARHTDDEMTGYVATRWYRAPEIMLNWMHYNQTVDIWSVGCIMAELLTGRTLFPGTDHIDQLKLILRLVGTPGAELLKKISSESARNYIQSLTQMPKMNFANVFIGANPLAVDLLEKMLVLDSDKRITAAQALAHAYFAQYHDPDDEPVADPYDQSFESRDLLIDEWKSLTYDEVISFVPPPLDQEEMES

| effect on JNK activity [1] | effect on TNFα-induced IKK activity [2] | effect on IKKβ expression (immunoblotting) ([5]; COS cells overexpressing HA-tagged IKKβ) | effect on activation of p38 MAP kinase [6] | SMILES | anti-inflammatory effect [3] | effect on MEKK1-induced IKK activity [4] | effect on kinase activity of overexpressed HA-tagged IKKβ ([5]; COS cells, PGA1 15 or 30 μM, FIG. 2C) |
| --- | --- | --- | --- | --- | --- | --- | --- |
| stimulated | inhibited | – | – | CCCCC/C=C/C=C1/C(=O)C=C[C@@H]1C/C=C\CCCC(=O)O [15dPGJ2, 15-deoxy-Δ^12-14-PGJ2] | anti-inflammatory effect | – | – |
| – | – | did not affect | did not inhibit | CCCCC[C@H](O)/C=C/[C@H]1C=CC(=O)C1CCCCCCC(=O)O (stereo partly shown) [PGA1, prostaglandin A1] | – | inhibited | strongly inhibited; also recorded: inhibits |
